Source: patent US20070202547A1, “Methods For Detecting Substances Which Bind To The Amyloid Precursor Protein Or Beta Amyloid Fragments, And Binding Compounds” (priority 2004, published 2007)
pIC50: −log10 of the molar value.

Experiments:
APP variant = assay: Antibody-masking ALPHA assay on biotinylated APP variant (Examples 5A/5B); type: binding; conditions: antibody to C-terminal region of Aβ (5A) and LN27 to N-terminal region of APP (5B); pH 4.5, 37° C., 1 hour
Description: A biotinylated APP variant (400 nM) was combined with Examples 1-3 under assay conditions (50 mM sodium acetate, pH 4.5; 1x Protease Inhibitor cocktail (Roche cat # 1836153); 100 μg/mL bovine serum albumin, 0.2% CHAPS). Incubations with vehicle, including DMSO (compound diluent), and incubations lacking the APP variant were carried out as controls for each experiment. Each mixture was incubated at 37° C. for 1 hour.
Thereafter, 70 μL of each incubation mixture was placed in its own well of a 96-well plate. 5 μL of 1 M Tris-Cl, pH 8.0 was added to each well to neutralize any binding reaction.
In Example 5A, a mixture of ALPHA beads was prepared from
(1) 20 μg/mL streptavidin donor beads;
(2) 20 μg/mL Protein A acceptor beads (from AlphaScreen General IgG (Protein A) Detection Kit Perkin Elmer Life Sciences; 10,000 pts (Part Number 6760617M)), containing 150 ng/mL of a rabbit polyclonal antibody directed against the C-terminal region of Aβ; and
(3) 0.1 % bovine serum albumin.
The beads were combined in a phosphate buffered saline.
In Example 5B, a mixture of ALPHA beads was prepared from […]
The following day, the plates were read using ALPHAQUEST, to measure the degree of binding of the antibodies. […]

gamma-secretase = gamma-secretase (Homo sapiens, UniProt P05067); assay: Gamma-secretase cleavage of CTFβ substrate (HeLa cell membrane extract); type: biochemical; conditions: Aβ40 detection with 6E-10/G2-10, read-out: CTFβ CLEAVAGE AT POSITION 40
Description: Accordingly, Examples 1-4 were tested for their ability to inhibit gamma-secretase cleavage of both a full-length CTFβ substrate, as described in Li, 2000, Proc. Natl Acad Sci. 97:6138-6143. The assays were carried out as follows:
Inhibition of CTFβ Cleavage
• 10 μL 10× protease inhibitor cocktail (Roche, cat # 1836153) • 25 μL 4× Buffer (50 mM PIPES pH7.0, 150 mM KCl, 5 mM MgCl2, 5 mM CaCl2) • 2 μL 10% CHAPSO • 5 μL HeLa cell membrane extract characterized for gamma-secretase activity • 7 μL 25 μM bacterially expressed CTFβ • 51 μL water • 1 μL compound in DMSO The reactions were incubated at 37° C. for 150 min and quenched with 25 μL 5× RIPA buffer (750mM NaCl, 5% NP-40, 2.5% DOC, 0.5% SDS, 250 mM Tris H8.0). Detection:
Gamma-secretase cleavage of the CTFβ substrate was assessed by incubating 50 μL of the reaction with 25 μL of 4 μg/mL biotinylated antibody 6E-10 which is specific for the N-terminal region of Aβ, and 25 μL of 1.5 μg/mL of a ruthinylated antibody G2-10, which is specific to the C-terminal region of Aβ40. The C-terminal region is present only after gamma secretase cleavage of Aβ. The antibodies were allowed to bind overnight at room temperature. The following day, 25 μL of 80 μg/mL streptavidin-coated Dynabeads (M-280) were added to each reaction, allowed to bind for 30 minutes, and quenched with 275 μL IGEN assay buffer. Quantification of the gamma-secretase cleavage products was carried out using an Origen Analyzer.

Chain of gamma-secretase (P05067 whole entry): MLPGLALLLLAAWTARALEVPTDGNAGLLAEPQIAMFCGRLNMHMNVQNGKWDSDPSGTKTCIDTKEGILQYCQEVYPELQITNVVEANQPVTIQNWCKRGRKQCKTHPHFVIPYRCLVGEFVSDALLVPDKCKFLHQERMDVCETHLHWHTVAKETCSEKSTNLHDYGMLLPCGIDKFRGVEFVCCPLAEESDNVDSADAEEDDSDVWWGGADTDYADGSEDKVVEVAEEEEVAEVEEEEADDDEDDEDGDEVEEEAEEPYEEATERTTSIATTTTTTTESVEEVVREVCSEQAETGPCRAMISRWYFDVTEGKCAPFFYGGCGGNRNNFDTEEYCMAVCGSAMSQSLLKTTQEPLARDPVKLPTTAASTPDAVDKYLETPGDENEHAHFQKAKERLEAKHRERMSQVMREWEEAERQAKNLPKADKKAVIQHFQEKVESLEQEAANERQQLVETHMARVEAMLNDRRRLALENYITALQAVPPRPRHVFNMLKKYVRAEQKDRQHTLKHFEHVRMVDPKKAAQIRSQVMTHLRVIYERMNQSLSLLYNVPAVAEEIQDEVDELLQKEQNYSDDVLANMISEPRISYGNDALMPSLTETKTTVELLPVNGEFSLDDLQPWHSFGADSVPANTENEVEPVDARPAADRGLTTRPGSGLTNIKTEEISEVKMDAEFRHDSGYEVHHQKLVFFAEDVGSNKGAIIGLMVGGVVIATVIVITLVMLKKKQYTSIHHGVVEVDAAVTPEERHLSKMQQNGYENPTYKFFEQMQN

Row | SMILES | interaction with the APP variant near the antibody binding sites (APP variant) | pIC50 (gamma-secretase)
1 | O=C(O)COc1cc2c(cc1CCCOc1ccccc1Cl)OC(CCc1ccccc1)C2 (stereo not shown) [Example 2, {[6-[3-(2chlorophenoxy)propyl)-2-(2-phenylethyl)-2,3-dihydro-1-benzofuran-5-yl]oxy} acetic] | interacted with the APP variant within its Aβ domain, proximal to the C-terminal binding site | 5.10
2 | O=C(O)COc1cc2c(cc1CCCOc1ccccc1)OC(CCc1ccccc1)C2 (stereo not shown) [Example 1, {[6-(3-phenoxypropyl)-2-(2-phenylethyl)-2,3-dihydro-1-benzofuran-5-yl]oxy} acetic acid] | interacted with the APP variant within its Aβ domain, proximal to the C-terminal binding site | 4.54
